Results taken from patent publication US20060234906A1, “Structure of a complex of retinoblastoma protein bound to e2f, and uses thereof” (priority 2002, published 2006).
Where two headings read alike, the source gives them in different places. Residues, ends and D or L forms follow the SMILES beside them. *: point of attachment. 5FAM = O=C1OC2(c3ccc(O)cc3Oc3cc(O)ccc32)c2ccc(C(=O)*)cc21

Key:
[1] = molecular target: T1, RbAB (Homo sapiens, UniProt P06400); experiment: RbAB
T1 construct: residues 372 to 589 of the A domain and 636 to 787 of the B domain; GST (with Prescission protease site) (N, cleaved yes); engineered thrombin site (LVPRGS) at the A-domain end of the A-B linker (C, cleaved yes); engineered thrombin site (LVPRGS) at the B-domain end of the A-B linker (N, cleaved yes); made in house; host or cells: E. coli
T1 sequence (P06400 whole entry, looked up): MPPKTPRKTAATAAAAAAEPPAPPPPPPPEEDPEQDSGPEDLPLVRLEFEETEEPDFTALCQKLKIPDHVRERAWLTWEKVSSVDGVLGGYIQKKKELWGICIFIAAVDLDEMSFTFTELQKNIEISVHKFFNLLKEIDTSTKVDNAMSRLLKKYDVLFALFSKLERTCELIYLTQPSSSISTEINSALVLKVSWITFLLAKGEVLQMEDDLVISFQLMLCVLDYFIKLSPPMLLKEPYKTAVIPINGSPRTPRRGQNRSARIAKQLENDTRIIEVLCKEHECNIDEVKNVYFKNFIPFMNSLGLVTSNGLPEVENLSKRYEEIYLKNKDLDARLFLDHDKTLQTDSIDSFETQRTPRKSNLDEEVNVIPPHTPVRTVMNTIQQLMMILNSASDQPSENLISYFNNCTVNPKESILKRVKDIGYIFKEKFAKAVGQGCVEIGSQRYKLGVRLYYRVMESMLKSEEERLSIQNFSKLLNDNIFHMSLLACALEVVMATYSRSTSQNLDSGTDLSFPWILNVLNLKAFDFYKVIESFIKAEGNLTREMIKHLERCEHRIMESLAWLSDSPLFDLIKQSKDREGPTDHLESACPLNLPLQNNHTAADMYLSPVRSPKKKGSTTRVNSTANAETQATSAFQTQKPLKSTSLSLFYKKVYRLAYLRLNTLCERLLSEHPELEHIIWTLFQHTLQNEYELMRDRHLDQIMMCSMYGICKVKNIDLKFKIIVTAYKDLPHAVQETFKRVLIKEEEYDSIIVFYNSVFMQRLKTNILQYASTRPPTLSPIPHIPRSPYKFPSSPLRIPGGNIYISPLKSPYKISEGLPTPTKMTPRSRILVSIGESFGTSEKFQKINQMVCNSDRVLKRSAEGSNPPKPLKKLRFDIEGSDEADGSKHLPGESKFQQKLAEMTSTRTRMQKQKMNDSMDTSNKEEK
Excerpt: (§1) Table printed on a drawing sheet, FIG. 2B
(§2) The patent's description of the figure: FIG. 2.
(§3) First copying reader's note: Binding constants of E2F fragments to the Rb constructs RbAB and RbABC; the error is printed in the same cell as the value.
(§4) Where the first naming reader finds the target: head: RbAB

[2] = molecular target: T2, RbABC (Homo sapiens, UniProt P06400); experiment: RbABC
T2 construct: His6-RbABC (RESIDUES 380-929); made in house; host or cells: E. coli
T2 sequence (P06400 whole entry, looked up): T1 sequence (P06400 whole entry, looked up)
Excerpt: as §1, §2, §3
(§5) Where the first naming reader finds the target: head: RbABC

[3] = molecular target: T3, pRb/Fl-E7 (Homo sapiens, UniProt P06400); experiment: Fluorescence polarization displacement binding, Fl-E7 bound to pRb; conditions: fluoro-tagged peptide 400 nM pre-incubated with pRb 1 μM
T3 sequence (P06400 373-771 limits assumed): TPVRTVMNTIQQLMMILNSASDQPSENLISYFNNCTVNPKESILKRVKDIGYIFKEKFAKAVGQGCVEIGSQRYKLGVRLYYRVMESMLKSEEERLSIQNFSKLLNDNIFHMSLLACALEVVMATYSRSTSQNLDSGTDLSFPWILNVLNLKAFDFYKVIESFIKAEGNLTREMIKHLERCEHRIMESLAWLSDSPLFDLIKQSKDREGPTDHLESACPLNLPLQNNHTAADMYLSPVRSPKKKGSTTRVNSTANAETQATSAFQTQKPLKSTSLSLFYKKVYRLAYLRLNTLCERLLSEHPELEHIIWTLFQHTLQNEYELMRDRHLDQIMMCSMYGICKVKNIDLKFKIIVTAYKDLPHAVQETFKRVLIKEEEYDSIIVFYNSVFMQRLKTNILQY
Protocol: (§6) Fluoro-tagged peptide (400 nM) was pre-incubated with pRb (1 μM ) and unlabelled peptide added at the concentrations shown. Displacement binding curves were plotted (FIG. 4a), and were fitted to a one site competition binding model using Graphpad prism curve fitting software.

[4] = molecular target: T4, pRb (Homo sapiens, UniProt P06400); experiment: Fluorescence polarization titration binding of fluoro-labelled peptides with pRb
T4 sequence (P06400 373-771 limits assumed): T3 sequence (P06400 373-771 limits assumed)
Excerpt: Synthetic peptides were synthesised and fluoro-tagged using either N-terminal labelling with 5 carboxyfluorescein succinimidyl ester or cysteine labelling with single isomer tetramethylrhodamine-5-maleimide. […] Fluorescein fluorescence measured at λexcite=485 and λemit=520 nm
Rhodamine fluorescence measured at λexcite=545 and λemit=580 nm
Measurements were made using BMG Fluorostar plate reader fitted with polarization optic. […] Data were fitted to a one site binding model using Graphpad prism.
pRb titration curves were performed in 96-well black plates, in a total reaction volume of 100 μL. Doubling dilutions from 10 μM stock of pRb were made in binding buffer (50 mM Tris HCl, pH7.0, 100 mM NaCl, 10 mM DTT, 0.05% NP-40) and 80 μL added in triplicate to wells. 20 μL of 2 μM fluoro-peptide was added and pipetted up and down to mix. The plate was read after 1 hr incubation at room temperature.

[5] = molecular target: T5, RbAB (Homo sapiens, UniProt P06400); experiment: RbAB; remark: listed apart in the source
T5 construct: residues 372 to 589 of the A domain and 636 to 787 of the B domain; GST (with Prescission protease site) (N, cleaved yes); engineered thrombin site (LVPRGS) at the A-domain end of the A-B linker (C, cleaved yes); engineered thrombin site (LVPRGS) at the B-domain end of the A-B linker (N, cleaved yes); made in house; host or cells: E. coli
Excerpt: as §1, §2, §3, §4

[6] = molecular target: T6, pRb/Fl-E2F (Homo sapiens, UniProt P06400); experiment: Fluorescence polarization displacement binding, Fl-E2F bound to pRb; conditions: fluoro-tagged peptide 400 nM pre-incubated with pRb 1 μM
T6 sequence (P06400 373-771 limits assumed): T3 sequence (P06400 373-771 limits assumed)
Protocol: as §6

[7] = molecular target: T7, RbABC (Homo sapiens, UniProt P06400); experiment: RbABC; remark: listed apart in the source
T7 construct: His6-RbABC (RESIDUES 380-929); made in house; host or cells: E. coli
Excerpt: as §1, §2, §3, §5

[8] = molecular target: T8, pRb (Homo sapiens, UniProt P06400); experiment: Competition experiment (Ni column, SDS-PAGE): E2F(409-426) against E2F(243-437) for binding to pRb; conditions: qualitative competition experiment
T8 construct: His6-RbAB (residues 376-792); made in house
T8 sequence (P06400 376-792): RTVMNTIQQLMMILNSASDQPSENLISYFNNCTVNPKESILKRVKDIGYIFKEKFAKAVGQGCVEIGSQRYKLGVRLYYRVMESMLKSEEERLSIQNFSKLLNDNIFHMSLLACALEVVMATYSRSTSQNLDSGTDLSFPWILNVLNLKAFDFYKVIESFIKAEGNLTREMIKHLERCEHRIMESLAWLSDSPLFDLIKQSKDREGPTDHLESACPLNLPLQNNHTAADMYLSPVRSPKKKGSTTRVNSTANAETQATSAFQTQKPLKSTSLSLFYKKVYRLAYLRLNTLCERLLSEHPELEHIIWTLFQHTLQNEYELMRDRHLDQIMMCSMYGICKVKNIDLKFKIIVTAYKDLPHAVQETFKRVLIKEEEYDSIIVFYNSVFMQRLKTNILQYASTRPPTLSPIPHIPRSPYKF
Excerpt: The proteins used in these experiments were His6-RbABC (RESIDUES 380-929); MW 66.07 kDa, non-tagged RbAB (residues 372-787); MW 48.67 KDa, are His6-RbAB (residues 376-792); MW 49.86 KDa, E2F(243-437); MW 21.45 KDa HPV E7 (residues 17-98); MW 9.38 KDa and E2F(409-426); MW 2.12 KDa. Protein concentrations were carefully determined by u.v. spectroscopy and confirmed by ITC titrations. The small acidic E2F proteins stain much weaker than Rb with Coomassie on SDS-PAGE. For all gel lanes contained a final RbAB concentration of ca. 7 μM. After equilibration with E2F(243-437) and E2F(409-426) the samples were loaded onto a 1.0 ml Ni column and washed with 7×0.5 ml of loading buffer (50 mM Tris pH 7.5, 200 mM NaCl & 10 mM Imidazole). The samples were then eluted with 7×0.5 ml elution buffer (50 mM Tris, pH 7.5, 200 mM NaCl, 200 mM Imidazole). After volume correction samples were boiled in SDS loading buffer and run on a 4-12% SDS PAGE. For the two pRb proteins and E2F(243-437) were mixed at 40 μM in a final volume of 0.5 ml. After equilibration for 2 hrs the mixture was loaded onto 1 ml Ni beads in a small column, washed with 7×0.5 ml of loading buffer (50 mM Tris, pH 7.5, 200 mM NaCl, 10 mM Imidazole), eluted using 7×0.5 ml elution buffer (50 mM Tris, pH 7.5, 200 mM NaCl, 200 mM Imidazole). Samples, after correcting for volume were boiled in SDS sample buffer and run on a 4-12% SDS gel.

[9] = molecular target: T9, recombinant pRb A/B domains with E2F(409-426) peptide (Homo sapiens, UniProt P06400); experiment: Fluorescence polarization screen (384-well), fluorescein-E2F with pRb, screen controls; type: binding; conditions: 1 μM pRb, 0.4 μM fluorescein-E2F
T9 sequence (P06400 373-771 limits assumed): T3 sequence (P06400 373-771 limits assumed)
Excerpt: Based on the crystal structure defined by the atomic co-ordinates in Annex 1, an FP screen was configured for the interaction of recombinant pRb A/B domains with E2F(409-426) peptide (see FIG. 1B). In addition, a second peptide binding site E7, see FIG. 1B), distant from the E2F binding pocket, was utilized as an internal control for non-specific inhibitors. Fluorophores in the form of fluorescein and rhodamine labelled peptides were synthesised and were used in a primary screen and hit confirmation.
The assay was optimised in 384-well black-plates (Matrix) and automated using a Beckman Fx liquid handling robot. 1 μM pRb in 50 mM Tris HCl, pH7.0, 100 mM NaCl, 10 mM DTT, 0.05% NP-40 was mixed with 40 μM compound (4% DMSO) and 0.4 μM fluorescein-E2F (final concentrations).
Polarized and depolarized signal from fluorescein-E2F with and without pRb present are shown in FIG. 5 (solid and open circles respectively). Specific disruption of binding by E2F protein and peptide are also shown. […] Addition of unlabelled-E2F at a concentration which gave 50% inhibition is clearly separated from the control populations. Hits were identified as compounds which reduced the polarization signal to less than mean-3sd of the fluorescein-E2F: pRb control.

E2F(380-437): Synthetic peptide of E2F residues 380-437 (ADSLLEHVREDFSGLLPEEFISLSPPHEALDYHFGLEEGEGIRDLFDCDFGDLTPLDF; UniProt Q01094 380-437, looked up, fragment)
Kd [1]: 160 ± 10 nM | Kd [2]: 100 ± 10 nM

CC[C@H](C)[C@H](NC(=O)CNC(=O)[C@H](CCC(=O)O)NC(=O)CNC(=O)[C@H](CCC(=O)O)NC(=O)[C@H](CCC(=O)O)NC(=O)[C@H](CC(C)C)NC(=O)CNC(=O)[C@H](Cc1ccccc1)NC(=O)[C@H](Cc1c[nH]cn1)NC(=O)[C@H](Cc1ccc(O)cc1)NC(=O)[C@H](CC(=O)O)NC(=O)[C@H](CC(C)C)NC(=O)c1ccc2c(c1)C(=O)OC21c2ccc(O)cc2Oc2cc(O)ccc21)C(=O)N[C@@H](CCCNC(=N)N)C(=O)N[C@@H](CC(=O)O)C(=O)N[C@@H](CC(C)C)C(=O)N[C@@H](Cc1ccccc1)C(=O)N[C@@H](CC(=O)O)C(=O)O [Fluorescein-E2F, N-terminal amide link-age 5 carboxyfluorescein-E2F409-426, 18′mer] (5FAM-LDYHFGLEEGEGIRDLFD-OH; C-terminus assumed)
displacement of Fl-E7 from pRb [3]: does not displace E7 | Kd ([4]; pRb titration with fluoro-labelled peptide, one site binding model, read-out: Kd): 450 ± 70 nM

CC[C@H](C)[C@H](NC(=O)CNC(=O)[C@H](CCC(=O)O)NC(=O)CNC(=O)[C@H](CCC(=O)O)NC(=O)[C@H](CCC(=O)O)NC(=O)[C@H](CC(C)C)NC(=O)CNC(=O)[C@H](Cc1ccccc1)NC(=O)[C@H](Cc1c[nH]cn1)NC(=O)[C@H](Cc1ccc(O)cc1)NC(=O)[C@H](CC(=O)O)NC(=O)[C@@H](N)CC(C)C)C(=O)N[C@@H](CCCNC(=N)N)C(=O)N[C@@H](CC(=O)O)C(=O)N[C@@H](CC(C)C)C(=O)N[C@@H](Cc1ccccc1)C(=O)N[C@@H](CC(=O)O)C(=O)O [E2F(409-426)] (H-LDYHFGLEEGEGIRDLFD-OH)
Kd [5]: 340 ± 20 nM | displacement of Fl-E7 from pRb [3]: without disrupting F1-E7 binding | displacement of Fl-E2F from pRb [6]: displace Fl-E2F | Kd [7]: 300 ± 30 nM | molar excess required to 50% compete with E2F(243-437) for binding to pRb [8]: 15-to 30 fold

CC(C)C[C@H](NC(=O)[C@H](CCC(N)=O)NC(=O)[C@H](CCC(=O)O)NC(=O)[C@H](Cc1ccc(O)cc1)NC(=O)[C@H](CS)NC(=O)[C@H](Cc1ccc(O)cc1)NC(=O)[C@H](CC(C)C)NC(=O)[C@H](CC(=O)O)NC(=O)c1ccc2c(c1)C(=O)OC21c2ccc(O)cc2Oc2cc(O)ccc21)C(=O)N[C@@H](CC(N)=O)C(=O)O [Fluorescein-E7, N-terminal amide linkage Scarboxyfluorescein-E7, nonomer] (5FAM-DLYCYEQLN-OH; C-terminus assumed)
Kd [4]: 130 ± 20 nM

B1: E2F protein: E2F protein added as screen control that specifically disrupts binding; probably E2F(243-437) (protein, UniProt Q01094 243-437, looked up, fragment)
chain: LAYVTCQDLRSIADPAEQMVMVIKAPPETQLQAVDSSENFQISLKSKQGPIDVFLCPEETVGGISPGKTPSQEVTSEEENRATDSATIVSPPPSSPPSSLTTDPSQSLLSLEQEPLLSRMGSLRAPVDEDRLSPLVAADSLLEHVREDFSGLLPEEFISLSPPHEALDYHFGLEEGEGIRDLFDCDFGDLTPLDF
displacement of Fl-E2F from pRb (screen control) [9]: completely displaces F1-E2F
